Measurements as given in paper PMC9772450, “Gel-forming antagonist provides a lasting effect on CGRP-induced vasodilation” (Frontiers in Pharmacology, 2022).
Where two headings read alike, the source gives them in different places.

How the values were obtained:
[1] = test system: CGRP-induced vasodilation; assay: Dermal blood flow and vasodilation in rat hindlimbs, laser Doppler imaging; format: in vivo, Sprague-Dawley rats; settings: rat hindlimb, ADE651 8 mg in 8% solution s.c. at 0 h
Experimental: Adult Sprague Dawley male rats (body weight 150–200 g) were randomly divided into treatment groups. Animals were individually housed during the experiment. After acclimation, rats were anesthetized and stabilized under 2.5% isoflurane, and were placed on a heating pad. Testing articles were prepared just before the experiment and individually administered subcutaneously into the hindlimbs. Human β-CGRP (LifeTein LLC, Hillsborough, NJ) was dissolved in a saline solution, and the antagonist solution was prepared in a 5% glucose solution. […] In this experiment, the antagonist gel solution was administered at 0 h as a liquid solution shortly after dissolution to prevent issues associated with the formation of semi-solid gel when the peptide is dissolved at high levels. […] The amount of blood flow was determined by laser Doppler imaging as described earlier ([Van der Schueren et al., 2007]; [Benschop et al., 2014]). The laser Doppler scan series of the hindlimbs began with two baseline scans and was followed by two scans each at select time points. Data are reported as percent change from the average baseline scans.

[2] = Release of ADE651 from gel solution in vivo (single-dose pharmacokinetics); parameters: species or system Sprague-Dawley rats; settings: rat
Experimental: Single-dose pharmacokinetics of gel solution was investigated in male Sprague-Dawley rats. Rats received a peptide solution via the subcutaneous route. Blood samples were collected at pre-dose, 8 h, 1, 2, 4, and 8 days via a catheter that has been cannulated to the jugular vein (Charles River), and 0.5–1.0 ml of blood samples were collected at each time point. The animals were individually housed, plasma was obtained by centrifugation, and the peptide level in samples was determined by specific ADM2 EIAs (Catalogue no. EK-010–48, Phoenix Pharmaceuticals Inc.). It has a 0% cross-reactivity to ADM or CGRPs and has a sensitivity of 0.19 ng/ml. The Inter-assay variation was <15%.

[3] = Visual (tube-tapping) assay of gel-forming capability and solubility; format: physicochemical; parameters: key to Gel-forming ability: Y: can form a liquid gel; N: lacks the ability to efficiently form a liquid gel
Experimental: (§1) To evaluate the ability of peptides to form gels in situ, we initially determined this tendency qualitatively based on visual examinations of peptide solutions using a tube-tapping method. In addition, we quantitatively determined the viscosity of select peptide solutions using a viscometer (Rheosense Inc; http://www.rheosense.com/products/viscometers) ([Yan and Pochan, 2010]). In the visual assay, aliquots of peptides were dissolved in an aqueous solution (i.e., de-ionized water, saline, or 5% glucose solution). The peptide that dissolved instantly and stayed as a clear solution without obvious macroscopic change in viscosity at 20 min after mixing was considered soluble. If macroscopic particles of peptides remained in the solution at 20 min after mixing, the peptide was considered insoluble.

[4] = Viscosity of peptide solutions, Rheosense viscometer; format: physicochemical; settings: N = 5 per group, result in words
Experimental: as §1
In addition, we quantitatively determined the viscosity of ADE651 and control peptides using the Rheosense viscometer. The peptide solution was loaded onto a Rheosense viscometer chip, and the sample was injected at a constant flow rate through the flow channel with multiple pressure sensors that monitor the pressure drop from the inlet to the outlet. Because the pressure drop is correlated with the shear stress at the boundary wall, the instrument determines the rheological properties based on the standard principles of rheometry ([Yan and Pochan, 2010]).

[5] = Passage of peptide molecules through Centricon filters; format: physicochemical; settings: Centricon 30,000 MW cutoff, ADM2 EIA
Source text: To evaluate whether gel-formation reduces the movement of peptide molecules in solution, we used the Centricon® filters (Millipore) to separate samples and the carriers based on their molecular mass. The sample is monomeric peptides, and the carrier is the self-assembled gel. One milligram aliquots of the peptides were first dissolved as 0.1% solution in 5% glucose, 0.1% solution in saline, 5% solution in 5% glucose, 10% solution in 5% glucose, and 20% solution in 5% glucose. Ten minutes later, the 5%, 10%, and 20% solutions were diluted to the 0.1% level. Aliquots of these solutions were sampled and dispensed into separate Centricon columns (30,000 MW cutoff), and the monomeric peptide and gel molecules were separated by centrifugation for 15 min (2000 x g). The level of peptide in the elutes was determined by specific EIAs (Phoenix Pharmaceuticals Inc.).

[6] = test system: capsaicin-induced dermal blood flow; settings: ref Sinclair et al., 2010; cited from earlier work
Source text: It is known that anti-CGRP gepants could occupy a binding site close to the interface of the N-terminal domains of CLR and RAMP1, and act by allosteric regulation ([Miller et al., 2010]). Although the gepants compounds have low IC50 values in receptor activation assays in vitro, it is well documented that gepants need high concentrations to bloc ...

[7] = cited from earlier work
[8] = administered as a 25% gel depot; ref Oberg and Lamberts, 2016; cited from earlier work
Source text: Our screening of long-acting antagonists has originally focused on lipidated peptides because lipidation is known to increase the half-lives of various peptides by enabling them to be bound by albumin and other serum proteins, therefore reducing elimination by kidneys and degradation by serum proteases ([Drucker et al., 2010]). […] This finding is consistent with earlier studies of benzoylated and lipidated CGRP8-37 analogs which ha ...

Molecule: CCCCCCCCCCCCCCCC(=O)N[C@@H](CCCCN)C(=O)N[C@H](C(=O)N[C@@H](CCC(N)=O)C(=O)N[C@@H](CCCCN)C(=O)N[C@@H](CC(C)C)C(=O)N[C@@H](CO)C(=O)N[C@@H](C)C(=O)N1CCC[C@H]1C(=O)N[C@H](C(=O)N[C@@H](CC(=O)O)C(=O)N1CCC[C@H]1C(=O)N[C@@H](CO)C(=O)N[C@@H](CO)C(=O)N1CCC[C@H]1C(=O)N[C@@H](Cc1c[nH]cn1)C(=O)N[C@@H](CO)C(=O)N[C@@H](Cc1ccc(O)cc1)C(N)=O)C(C)C)C(C)C [ADE651]
- CGRP-induced increase in blood flow at the 5 h time point after ADE651 pretreatment ([1]; CGRP 1 mg/100 µL at 4 h, N = 3): 6%
- Blood flow before the CGRP treatment (4 h time point) versus control animals ([1]; result in words): significantly lower
- Tmax ([2]; male, Sprague-Dawley, sc, subcutaneous, 200 µL of 16% solution (32 mg), plasma, ADM2 EIA, three animals, read-out: Time of peak circulating level after administration): 8 h
- Sustained presence in the circulation after subcutaneous injection ([2]; subcutaneous gel solution): > 1 week
- Circulating level at 8 days after injection ([2]; subcutaneous, 16% solution (32 mg), plasma, ADM2 EIA, versus 0 h, result in words): significantly elevated
- Appearance of solution in saline at 6–20% ([3]; visual): cloudy
- Solubility in 5% glucose solution ([3]; visual): soluble from 0.1% to 20%
- Solubility in saline ([3]; visual): low solubility
- Gel-forming ability ([3]; visual inspection of 11% peptide solutions, tube-tapping, 20 min after mixing): Y
- Concentration at which the peptide solution forms a gel (becomes viscous) ([3]; visual, 20 min after dissolution, vial tilted 90° and tapped): 6–20%
- Viscosity of 0.5% solution in 5% glucose ([4]; compared with water, saline, 5% glucose, 0.5% and […] ADM): significantly higher than that of all other solutions evaluated
- Reduction of peptide level in the elutes from 5%, 10% and 20% solution groups compared to the 0.1% solution group ([5]; 2000 x g 15 min, dissolved in 5% glucose, diluted to 0.1% after 10 min, triplicate samples): more than 98%
- Peptide level in the elute from the 0.1% saline group versus 0.1% solution in 5% glucose group ([5]; N = 3 per group, result in words): significantly lower

Molecule: O=C(N[C@@H]1CC[C@@H](c2cccc(F)c2F)CN(CC(F)(F)F)C1=O)N1CCC(n2c(=O)[nH]c3ncccc32)CC1 [telcagepant, reference compound]
- EC (90) to inhibit the capsaicin-induced increase in dermal blood flow [6]: ~909 nM

Molecule: adrenomedullin 2 [ADM2]
- Resident time after subcutaneous injection ([7]; in vivo, sc): < 1 h

Molecule: adrenomedullin [ADM, reference compound]
- Viscosity of 0.5% and […] solutions in 5% glucose [4]: like that of 5% glucose solution
- Resident time after subcutaneous injection ([7]; short half-life, ref Nagata et al., 2022): < 1 h

Molecule: Lanreotide
- Period over which the gel releases the monomer [8]: a month
